Data taken from patent US20240358693A1, “METHODS OF TREATING PAIN” (Aisa Pharma, Inc., priority 2023, published 2024).

Test system: participants with SSc-RP
Assay: Scleroderma Health Assessment Questionnaire (SHAQ): disability indices and visual analog scales
Type: in vivo, human
Conditions: PP Population, Part A, SSc patients, sensitivity analysis
Description: The standard, validated, patient reported outcome measures tool for SSc patients, the Scleroderma Health Assessment Questionnaire (SHAQ), will be used to assess the participant qualify of life. Details are attached in the Appendix. The participant quality of life will be scored, and a disability index calculated for each questionnaire completed by the patient at Screening and each in-clinic visit. The absolute change in participant quality of life from baseline to the end of each dosing period will be calculated similar to frequency data as before.
The SHAQ includes a Raynaud's VAS, which will be reported at screening and each in-clinic visit. The absolute change in Raynaud-VAS, assessed by the participants response to the SHAQ question ‘In the past 7 days, how much have your Raynaud's interfered with your daily activities?’ at baseline and the end of each dosing period will be calculated similar to frequency data as before.
The SHAQ is used to calculate a Disability Index to assess the participant qualify of life. The eight categories assessed by the Disability Index are 1) dressing and grooming, 2) arising, 3) eating, 4) walking, 5) hygiene, 6) reach, 7) grip, and 8) common daily activities. For each of these categories, patients report the amount of difficulty they have in performing two or three specific activities.
There are four possible responses for the Disability Index questions: • Without any difficulty=0 • With some difficulty=1 • With much difficulty=2 • Unable to do=3. • The highest score reported by the patient for any component question of the eight categories determines the score for that category. • If a component question is left blank or the response is too ambiguous to assign a score, then the score for that category is determined by the remaining completed question(s). • If all component questions are blank or if more than one answer is given, then follow up with the respondent is required. • If the respondent's mark is between the response columns, then move it to the closest one. If it's directly between the two, move it to the higher one.
Each of the disability items on the SHAQ has a companion aids/devices variable that is used to record what type(s) of assistance, if any, the participant uses for his/her usual activities. These variables (see below) are coded as follows: • 0=No assistance is needed. • 1=A special device is used by the patient in his/her usual activities. • 2=The patient usually needs help from another person. • 3=The patient usually needs BOTH a special device AND help from another person.
The scoring variables and scoring rules permit the computation of two disability indices, the Standard Disability Index and the Alternative Disability Index.
This question results in a new set of category scores that are computed by adjusting the score for each category, if necessary, based on the patient's use of an aid or device or assistance for that category. If either devices and/or help from another person are checked for a category, the score is set to “2”, unless the score is already “3” (i.e., scores of “0” or “1” are increased to “2”). For example, if the highest score for the dressing category is “1”, and the patient says they use a device for dressing, the computed category score would be “2”. The sum of the computed categories scores is then calculated and divided by the number of categories answered. This gives a score in the 0 to 3 range.
The aid and device variables are not used to calculate the alternative disability index; it is calculated by adding the scores for each of the categories and dividing by the number of categories answered. This gives a score in the 0 to 3 range.
The standard, validated, patient reported outcome measures tool for SSc patients, the SHAQ, was collected at the time points specified in the study schedules (FIG. 2 and FIGS. 4A and 4B) to assess the participant's quality of life. The SHAQ included a Raynaud's VAS that will also be reported separately.

[1] = Day 12 vs baseline, Subject 01-110 Day 12 score excluded
[2] = In-Clinic Visit (Day 12), Subject 01-110 Day 12 score excluded

## COCCOC(=O)C1=C(C)NC(C)=C(C(=O)OC/C=C/c2ccccc2)C1c1cccc([N+](=O)[O-])c1 (stereo not drawn) [Pooled Cilnidipine]
Day 12 vs baseline
  SHAQ Visual Analogue Scale - Raynaud’s, Change from Baseline, Min: −2.40
  SHAQ Visual Analogue Scale - Raynaud’s, Change from Baseline, Q1: −1.050
  SHAQ Visual Analogue Scale - Raynaud’s, Change from Baseline, Q3: 0.350
  SHAQ Visual Analogue Scale - Raynaud’s, Percent Change from Baseline, Max: 136.4%
  SHAQ Visual Analogue Scale - Raynaud’s, Percent Change from Baseline, Mean: −18.62%
  SHAQ Visual Analogue Scale - Raynaud’s, Percent Change from Baseline, Median: −33.33%
  SHAQ Visual Analogue Scale - Raynaud’s, Percent Change from Baseline, Min: −100.0%
  SHAQ Visual Analogue Scale - Raynaud’s, Percent Change from Baseline, Q1: −68.57%
  SHAQ Visual Analogue Scale - Raynaud’s, Percent Change from Baseline, Q3: −2.27%
[1]
  SHAQ Visual Analogue Scale - Breathing Problems, Change from Baseline, Max: 0.60
  SHAQ Visual Analogue Scale - Breathing Problems, Change from Baseline, Mean: −0.388
  SHAQ Visual Analogue Scale - Breathing Problems, Change from Baseline, Median: 0.000
  SHAQ Visual Analogue Scale - Breathing Problems, Change from Baseline, Min: −2.00
  SHAQ Visual Analogue Scale - Breathing Problems, Change from Baseline, Q1: −1.000
  SHAQ Visual Analogue Scale - Breathing Problems, Change from Baseline, Q3: 0.150
  SHAQ Visual Analogue Scale - Breathing Problems, Percent Change from Baseline, Max: 150.0%
  SHAQ Visual Analogue Scale - Breathing Problems, Percent Change from Baseline, Mean: −0.22%
  SHAQ Visual Analogue Scale - Breathing Problems, Percent Change from Baseline, Median: −16.00%
  SHAQ Visual Analogue Scale - Breathing Problems, Percent Change from Baseline, Min: −100.0%
  SHAQ Visual Analogue Scale - Breathing Problems, Percent Change from Baseline, Q1: −66.67%
  SHAQ Visual Analogue Scale - Breathing Problems, Percent Change from Baseline, Q3: 31.58%
In-Clinic Visit (Day 12)
  SHAQ Alternative Disability Index, Max: 1.25
  SHAQ Alternative Disability Index, Mean: 0.391
  SHAQ Alternative Disability Index, Median: 0.188
  SHAQ Alternative Disability Index, Min: 0.00
  SHAQ Alternative Disability Index, Q1: 0.000
  SHAQ Alternative Disability Index, Q3: 0.750
  SHAQ Visual Analogue Scale - Finger Ulcers, Max: 1.90
  SHAQ Visual Analogue Scale - Finger Ulcers, Mean: 0.463
  SHAQ Visual Analogue Scale - Finger Ulcers, Median: 0.000
  SHAQ Visual Analogue Scale - Finger Ulcers, Min: 0.00
  SHAQ Visual Analogue Scale - Finger Ulcers, Q1: 0.000
  SHAQ Visual Analogue Scale - Finger Ulcers, Q3: 0.900
  SHAQ Visual Analogue Scale - Intestinal Problems, Max: 3.80
  SHAQ Visual Analogue Scale - Intestinal Problems, Mean: 0.975
  SHAQ Visual Analogue Scale - Intestinal Problems, Median: 0.300
  SHAQ Visual Analogue Scale - Intestinal Problems, Min: 0.00
  SHAQ Visual Analogue Scale - Intestinal Problems, Q1: 0.000
  SHAQ Visual Analogue Scale - Intestinal Problems, Q3: 1.700
  SHAQ Visual Analogue Scale - Overall Disease Severity, Max: 5.20
  SHAQ Visual Analogue Scale - Overall Disease Severity, Mean: 1.475
  SHAQ Visual Analogue Scale - Overall Disease Severity, Median: 1.300
  SHAQ Visual Analogue Scale - Overall Disease Severity, Min: 0.00
  SHAQ Visual Analogue Scale - Overall Disease Severity, Q1: 0.350
  SHAQ Visual Analogue Scale - Overall Disease Severity, Q3: 1.650
  SHAQ Visual Analogue Scale - Pain, Max: 4.30
  SHAQ Visual Analogue Scale - Pain, Mean: 1.875
  SHAQ Visual Analogue Scale - Pain, Median: 1.550
  SHAQ Visual Analogue Scale - Pain, Min: 0.00
  SHAQ Visual Analogue Scale - Pain, Q1: 0.550
  SHAQ Visual Analogue Scale - Pain, Q3: 3.250
  SHAQ Visual Analogue Scale - Raynaud’s, Max: 4.40
  SHAQ Visual Analogue Scale - Raynaud’s, Mean: 1.900
  SHAQ Visual Analogue Scale - Raynaud’s, Median: 1.250
  SHAQ Visual Analogue Scale - Raynaud’s, Min: 0.00
  SHAQ Visual Analogue Scale - Raynaud’s, Q1: 0.700
  SHAQ Visual Analogue Scale - Raynaud’s, Q3: 3.450
[2]
  SHAQ Visual Analogue Scale - Breathing Problems, Max: 6.30
  SHAQ Visual Analogue Scale - Breathing Problems, Mean: 1.213
  SHAQ Visual Analogue Scale - Breathing Problems, Median: 0.200
  SHAQ Visual Analogue Scale - Breathing Problems, Min: 0.00
  SHAQ Visual Analogue Scale - Breathing Problems, Q1: 0.000
  SHAQ Visual Analogue Scale - Breathing Problems, Q3: 1.500
